The source of these data is US20260248963A1, “COMPOSITIONS FOR TREATING CANCER WITH KRAS MUTATIONS AND USES THEREOF” (AADIGEN, LLC, priority 2023, published 2026).

Common to all, as to type: cell-based
Test [1] deals with MTRX-1133 resistant ASPC-1 cells. As to the kind of experiment: Cell growth inhibition assay, MTRX-1133 resistant ASPC-1. As for the experimental part:
(§1) To identify mutations or regulatory mechanisms that would confer acquired resistance to KRAS^G12D inhibitor MTRX1133, ASPC-1 and PANC-1 cells harboring KRAS G12D were exposed to increasing concentrations of MTRX-1133 (up to 20 μM). […] Clones resistant to KRAS^G12D inhibitor were generated during the course of the treatment.
(§2) ADGN-123 nanoparticle corresponds to gRNA35A5 sgRNA/Cas9 mRNA (1/1 molar ratio) associated with ADGN peptide (ADGN-106-Hydro3 peptide or ADGN-108-R9) at molar ratio 20/1 (peptide/nucleic acid). ADGN-123 nanoparticles were evaluated on the three stable MTRX-1133 resistant PANC-1 clones and two ASPC-1 clones. PANC-1-C1, PANC-1-C2, PANC-1-C3, ASPC-1-C1 and ASPC-1-C2. Cells were cultured in 96-well plate format and treated with free mRNACas9-gRNA, or ADGN-123 (ADGN/mRNACas9-gRNA) complex (from 0.1-10 μM) on day 1. Cell proliferation was analyzed over a period of 5 days using CellTiter Glow kits on GlowMax (Promega) and cytotoxicity was analyzed at 72 hr after treatment using CellTiter Glow or MTT assays kits.

Test [2] has as its system parental PANC-1 cells harboring KRAS G12D. The experiment in a line: Growth suppression of parental PANC-1 cells. As for the experimental part:
as §1

In test [3] the test system is parental ASPC-1 cells harboring KRAS G12D. As to the kind of experiment: Growth suppression of parental ASPC-1 cells. The method, then: as §1
Test [4] relates to MTRX-1133 resistant PANC-1 cells. The experiment in a line: Cell growth inhibition assay, MTRX-1133 resistant PANC-1. As for the experimental part:
as §1, §2

On to `C#Cc1c(F)ccc2cc(O)cc(-c3ncc4c(N5CC6CCC(C5)N6)nc(OC[C@@]56CCCN5C[C@H](F)C6)nc4c3F)c12` [MTRX-1133], for which the IC50 in test [1] was determined as 2.08 ± 0.203 µM; in test [4], 4.75 ± 0.212 µM. For the same compound, the “Lowest concentration that suppressed the growth of parental cells” value in test [2] and in test [3] was 100 nM throughout.
